In the kinase profiling compilation of Christmann-Franck et al. (2016):

Key:
Experiment in all cases: radiometric filter-binding kinase assay
[1] = target: MAPK13 (human) (UniProt O15264)
[2] = target: ERBB4 (human) (UniProt Q15303)
[3] = target: TTK (human) (UniProt P33981)
[4] = target: MYLK (human) (UniProt Q15746)
[5] = target: PRKACA (human) (UniProt P17612)
[6] = target: MINK1 (human) (UniProt Q8N4C8)
[7] = target: CSNK2A1 (human) (UniProt P68400)
[8] = target: AURKB (human) (UniProt Q96GD4)
[9] = target: IKBKB (human) (UniProt O14920)
[10] = target: CHEK2 (human) (UniProt O96017)
[11] = target: EPHB3 (human) (UniProt P54753)
[12] = tested on: PRKAA1 or PRKAA2 (rat); settings: accession and sequence are those of the human protein
[13] = target: FGFR1 (human) (UniProt P11362); settings: compound 1.0 µM
[14] = target: MAPKAPK3 (human) (UniProt Q16644)
[15] = tested on: LCK (mouse); settings: accession and sequence are those of the human protein
[16] = target: MELK (human) (UniProt Q14680)
[17] = target: SRC (human) (UniProt P12931)
[18] = target: MARK4 (human) (UniProt Q96L34)
[19] = target: PRKCZ (human) (UniProt Q05513)
[20] = target: EEF2K (human) (UniProt O00418); settings: compound 1.0 µM
[21] = tested on: ROCK2 (rat); settings: accession and sequence are those of the human protein
[22] = target: CSK (human) (UniProt P41240)
[23] = target: DAPK1 (human) (UniProt P53355)
[24] = target: PHKG1 (human) (UniProt Q16816)
[25] = target: RPS6KA1 KD1 KD2 (human) (UniProt Q15418)
[26] = target: STK11 CAB39 STRADA (human) (UniProt Q9Y376+Q7RTN6+Q15831)
[27] = target: INSRR (human) (UniProt P14616); settings: compound 1.0 µM
[28] = target: NTRK1 (human) (UniProt P04629)
[29] = target: GSK3B (human) (UniProt P49841)
[30] = target: MKNK2 (human) (UniProt Q9HBH9)
[31] = target: CDK2 CCNA2 (human) (UniProt P20248+P24941)
[32] = target: MAPK1 (human) (UniProt P28482)
[33] = target: MAP3K9 (human) (UniProt P80192)
[34] = target: MKNK1 (human) (UniProt Q9BUB5)
[35] = target: MAP2K2 (human) (UniProt P36507)

Chain of NTRK1 (human) (P04629 whole entry, looked up): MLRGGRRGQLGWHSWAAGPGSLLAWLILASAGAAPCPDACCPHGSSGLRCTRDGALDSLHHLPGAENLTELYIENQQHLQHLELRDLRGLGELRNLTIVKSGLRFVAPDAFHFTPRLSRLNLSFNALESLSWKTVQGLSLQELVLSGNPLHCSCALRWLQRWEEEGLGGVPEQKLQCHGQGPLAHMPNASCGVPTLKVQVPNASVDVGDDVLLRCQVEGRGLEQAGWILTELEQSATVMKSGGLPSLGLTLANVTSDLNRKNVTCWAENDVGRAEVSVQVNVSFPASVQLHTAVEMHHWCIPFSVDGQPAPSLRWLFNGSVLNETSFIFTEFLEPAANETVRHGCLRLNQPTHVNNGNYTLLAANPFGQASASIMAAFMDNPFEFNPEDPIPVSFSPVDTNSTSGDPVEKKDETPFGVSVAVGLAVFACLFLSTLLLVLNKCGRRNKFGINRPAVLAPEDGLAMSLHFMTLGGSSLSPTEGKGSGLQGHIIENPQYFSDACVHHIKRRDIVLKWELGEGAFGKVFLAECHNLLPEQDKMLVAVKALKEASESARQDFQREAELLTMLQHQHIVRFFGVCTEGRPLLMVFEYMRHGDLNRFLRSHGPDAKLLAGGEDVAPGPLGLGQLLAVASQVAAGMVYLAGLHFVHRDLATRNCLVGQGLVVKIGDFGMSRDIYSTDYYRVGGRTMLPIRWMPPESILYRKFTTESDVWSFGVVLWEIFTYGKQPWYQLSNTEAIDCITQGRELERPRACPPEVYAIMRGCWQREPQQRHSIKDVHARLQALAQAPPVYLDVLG
Chain of MAPKAPK3 (human) (Q16644 whole entry, looked up): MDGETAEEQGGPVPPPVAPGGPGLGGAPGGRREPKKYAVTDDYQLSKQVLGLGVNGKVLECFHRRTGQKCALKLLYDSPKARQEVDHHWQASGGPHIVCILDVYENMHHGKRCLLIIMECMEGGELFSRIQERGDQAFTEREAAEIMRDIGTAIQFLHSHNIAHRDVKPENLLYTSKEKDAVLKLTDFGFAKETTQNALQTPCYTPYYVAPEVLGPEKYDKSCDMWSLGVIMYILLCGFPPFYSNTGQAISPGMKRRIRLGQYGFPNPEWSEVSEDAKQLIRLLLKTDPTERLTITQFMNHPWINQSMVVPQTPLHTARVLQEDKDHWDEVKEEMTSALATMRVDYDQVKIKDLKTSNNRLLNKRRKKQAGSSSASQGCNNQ
Chain of MELK (human) (Q14680 whole entry, looked up): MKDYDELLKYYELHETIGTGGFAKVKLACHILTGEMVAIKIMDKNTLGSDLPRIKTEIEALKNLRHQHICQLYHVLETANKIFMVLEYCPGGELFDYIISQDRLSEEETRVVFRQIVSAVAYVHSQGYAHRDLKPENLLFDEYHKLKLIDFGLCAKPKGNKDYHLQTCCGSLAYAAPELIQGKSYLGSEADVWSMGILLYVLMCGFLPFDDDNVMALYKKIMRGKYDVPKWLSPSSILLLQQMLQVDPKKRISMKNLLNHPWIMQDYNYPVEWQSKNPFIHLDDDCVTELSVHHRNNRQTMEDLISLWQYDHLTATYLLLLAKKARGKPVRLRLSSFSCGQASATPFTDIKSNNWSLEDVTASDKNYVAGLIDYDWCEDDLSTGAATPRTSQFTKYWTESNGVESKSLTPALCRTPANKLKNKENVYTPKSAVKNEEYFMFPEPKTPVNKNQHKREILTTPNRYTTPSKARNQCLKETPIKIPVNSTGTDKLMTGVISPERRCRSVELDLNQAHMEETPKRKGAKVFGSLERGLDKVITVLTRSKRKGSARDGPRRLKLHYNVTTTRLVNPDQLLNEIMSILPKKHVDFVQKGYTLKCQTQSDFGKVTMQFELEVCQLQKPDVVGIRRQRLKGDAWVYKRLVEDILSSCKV
Chain of CSNK2A1 (human) (P68400 whole entry, looked up): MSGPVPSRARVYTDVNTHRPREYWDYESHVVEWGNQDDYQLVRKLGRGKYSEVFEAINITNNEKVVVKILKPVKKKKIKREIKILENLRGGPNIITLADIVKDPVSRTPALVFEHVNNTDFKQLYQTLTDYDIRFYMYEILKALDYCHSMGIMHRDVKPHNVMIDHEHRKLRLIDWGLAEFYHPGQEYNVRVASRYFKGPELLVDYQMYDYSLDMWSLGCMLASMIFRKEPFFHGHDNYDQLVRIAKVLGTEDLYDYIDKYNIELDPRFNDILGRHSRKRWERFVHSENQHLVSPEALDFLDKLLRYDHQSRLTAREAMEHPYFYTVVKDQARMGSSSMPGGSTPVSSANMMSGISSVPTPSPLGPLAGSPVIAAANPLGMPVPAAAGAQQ
Chain of MAPK13 (human) (O15264 whole entry, looked up): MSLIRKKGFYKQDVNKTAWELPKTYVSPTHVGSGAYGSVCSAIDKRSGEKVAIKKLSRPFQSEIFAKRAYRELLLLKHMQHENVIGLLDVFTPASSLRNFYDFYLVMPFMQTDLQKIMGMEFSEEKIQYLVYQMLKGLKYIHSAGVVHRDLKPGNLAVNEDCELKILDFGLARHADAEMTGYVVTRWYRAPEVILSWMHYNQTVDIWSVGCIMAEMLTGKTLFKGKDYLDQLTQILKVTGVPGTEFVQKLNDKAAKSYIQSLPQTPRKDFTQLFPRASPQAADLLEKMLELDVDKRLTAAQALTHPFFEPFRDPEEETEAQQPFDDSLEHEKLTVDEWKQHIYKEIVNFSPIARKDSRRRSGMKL
Chain of TTK (human) (P33981 whole entry, looked up): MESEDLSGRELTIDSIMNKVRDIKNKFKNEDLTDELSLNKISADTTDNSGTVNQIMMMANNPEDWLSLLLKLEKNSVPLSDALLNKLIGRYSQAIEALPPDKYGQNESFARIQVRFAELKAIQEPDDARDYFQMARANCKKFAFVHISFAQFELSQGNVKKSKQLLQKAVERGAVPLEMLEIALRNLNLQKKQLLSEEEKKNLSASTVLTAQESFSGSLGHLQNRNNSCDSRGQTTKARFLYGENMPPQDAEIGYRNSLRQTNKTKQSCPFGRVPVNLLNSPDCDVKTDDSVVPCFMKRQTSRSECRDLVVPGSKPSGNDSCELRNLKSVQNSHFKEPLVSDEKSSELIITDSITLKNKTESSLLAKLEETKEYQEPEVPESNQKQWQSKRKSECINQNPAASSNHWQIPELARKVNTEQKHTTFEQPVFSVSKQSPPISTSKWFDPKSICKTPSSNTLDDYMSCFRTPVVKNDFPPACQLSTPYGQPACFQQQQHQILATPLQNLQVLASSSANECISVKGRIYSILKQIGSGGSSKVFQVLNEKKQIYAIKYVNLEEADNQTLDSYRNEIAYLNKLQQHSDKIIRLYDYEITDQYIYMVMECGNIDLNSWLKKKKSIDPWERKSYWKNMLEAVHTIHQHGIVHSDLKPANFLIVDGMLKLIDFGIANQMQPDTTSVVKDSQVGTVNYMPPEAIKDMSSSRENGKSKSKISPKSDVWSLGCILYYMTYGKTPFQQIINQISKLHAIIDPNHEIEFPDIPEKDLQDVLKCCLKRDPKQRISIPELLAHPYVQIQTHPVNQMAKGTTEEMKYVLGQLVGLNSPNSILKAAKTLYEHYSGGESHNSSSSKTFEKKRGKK
Chain of MAPK1 (human) (P28482 whole entry, looked up): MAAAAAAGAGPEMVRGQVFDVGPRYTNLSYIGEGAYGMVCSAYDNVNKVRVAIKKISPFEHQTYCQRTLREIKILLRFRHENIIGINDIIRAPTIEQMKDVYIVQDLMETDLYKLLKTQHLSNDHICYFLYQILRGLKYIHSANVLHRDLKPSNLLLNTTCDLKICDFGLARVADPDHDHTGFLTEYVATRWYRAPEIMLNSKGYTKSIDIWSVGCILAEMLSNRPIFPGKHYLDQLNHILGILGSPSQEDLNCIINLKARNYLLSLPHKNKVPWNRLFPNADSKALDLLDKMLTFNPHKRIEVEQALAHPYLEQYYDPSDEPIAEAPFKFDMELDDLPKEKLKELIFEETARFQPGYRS
Chain of CHEK2 (human) (O96017 whole entry, looked up): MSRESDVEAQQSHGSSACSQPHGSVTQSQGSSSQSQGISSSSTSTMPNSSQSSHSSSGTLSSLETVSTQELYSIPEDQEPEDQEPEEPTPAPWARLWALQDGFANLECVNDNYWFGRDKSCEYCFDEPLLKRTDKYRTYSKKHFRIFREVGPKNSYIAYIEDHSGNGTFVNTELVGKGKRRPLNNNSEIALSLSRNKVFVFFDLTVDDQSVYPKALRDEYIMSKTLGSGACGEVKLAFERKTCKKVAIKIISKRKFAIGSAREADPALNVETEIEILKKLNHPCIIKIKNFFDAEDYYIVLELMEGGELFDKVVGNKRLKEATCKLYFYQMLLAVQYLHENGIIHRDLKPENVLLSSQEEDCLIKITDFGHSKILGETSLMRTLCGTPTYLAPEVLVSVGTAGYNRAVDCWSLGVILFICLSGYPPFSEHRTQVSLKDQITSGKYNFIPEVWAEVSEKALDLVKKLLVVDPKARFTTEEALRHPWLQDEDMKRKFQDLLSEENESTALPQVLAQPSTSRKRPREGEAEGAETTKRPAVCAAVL
Chain of SRC (human) (P12931 whole entry, looked up): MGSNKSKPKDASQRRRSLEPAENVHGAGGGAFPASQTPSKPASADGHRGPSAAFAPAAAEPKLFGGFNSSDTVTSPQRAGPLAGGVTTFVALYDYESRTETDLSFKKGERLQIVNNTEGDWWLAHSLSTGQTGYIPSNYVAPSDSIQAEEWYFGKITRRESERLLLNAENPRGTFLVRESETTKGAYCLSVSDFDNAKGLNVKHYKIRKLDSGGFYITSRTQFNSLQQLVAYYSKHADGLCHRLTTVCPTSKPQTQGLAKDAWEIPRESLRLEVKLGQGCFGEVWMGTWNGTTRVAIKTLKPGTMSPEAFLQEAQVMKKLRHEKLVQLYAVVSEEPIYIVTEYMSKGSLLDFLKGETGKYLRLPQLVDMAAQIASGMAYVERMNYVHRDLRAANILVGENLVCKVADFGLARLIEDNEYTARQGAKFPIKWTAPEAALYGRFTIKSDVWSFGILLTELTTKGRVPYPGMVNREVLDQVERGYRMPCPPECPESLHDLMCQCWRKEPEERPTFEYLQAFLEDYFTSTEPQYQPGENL

Compound: COc1cc(O)c2c(c1)/C=C/C[C@H](O)[C@H](O)C(=O)/C=C\C[C@H](C)OC2=O
- residual activity ([1]; compound 0.1 µM): 99%
- residual activity ([1]; compound 1.0 µM): 114%
- residual activity ([2]; compound 0.1 µM): 100%
- residual activity ([2]; compound 1.0 µM): 95%
- residual activity ([3]; compound 0.1 µM): 104%
- residual activity ([3]; compound 1.0 µM): 91%
- residual activity ([4]; compound 0.1 µM): 108%
- residual activity ([4]; compound 1.0 µM): 80%
- residual activity ([5]; compound 0.1 µM): 99%
- residual activity ([5]; compound 1.0 µM): 93%
- residual activity ([6]; compound 0.1 µM): 101%
- residual activity ([6]; compound 1.0 µM): 83%
- residual activity ([7]; compound 0.1 µM): 106%
- residual activity ([7]; compound 1.0 µM): 77%
- residual activity ([8]; compound 0.1 µM): 94%
- residual activity ([8]; compound 1.0 µM): 74%
- residual activity ([9]; compound 0.1 µM): 102%
- residual activity ([9]; compound 1.0 µM): 95%
- residual activity ([10]; compound 0.1 µM): 110%
- residual activity ([10]; compound 1.0 µM): 87%
- residual activity ([11]; compound 0.1 µM): 111%
- residual activity ([11]; compound 1.0 µM): 100%
- residual activity ([12]; compound 0.1 µM): 100%
- residual activity ([12]; compound 1.0 µM): 92%
- residual activity [13]: 87%
- residual activity ([14]; compound 0.1 µM): 113%
- residual activity ([14]; compound 1.0 µM): 94%
- residual activity ([15]; compound 0.1 µM): 78%
- residual activity ([15]; compound 1.0 µM): 30%
- residual activity ([16]; compound 0.1 µM): 95%
- residual activity ([16]; compound 1.0 µM): 94%
- residual activity ([17]; compound 0.1 µM): 106%
- residual activity ([17]; compound 1.0 µM): 43%
- residual activity ([18]; compound 0.1 µM): 107%
- residual activity ([18]; compound 1.0 µM): 86%
- residual activity ([19]; compound 0.1 µM): 105%
- residual activity ([19]; compound 1.0 µM): 99%
- residual activity [20]: 85%
- residual activity ([21]; compound 0.1 µM): 116%
- residual activity ([21]; compound 1.0 µM): 83%
- residual activity ([22]; compound 0.1 µM): 118%
- residual activity ([22]; compound 1.0 µM): 56%
- residual activity ([23]; compound 0.1 µM): 108%
- residual activity ([23]; compound 1.0 µM): 94%
- residual activity ([24]; compound 0.1 µM): 100%
- residual activity ([24]; compound 1.0 µM): 89%
- residual activity ([25]; compound 0.1 µM): 113%
- residual activity ([25]; compound 1.0 µM): 90%
- residual activity ([26]; compound 0.1 µM): 138%
- residual activity ([26]; compound 1.0 µM): 65%
- residual activity [27]: 96%
- residual activity ([28]; compound 0.1 µM): 46%
- residual activity ([28]; compound 1.0 µM): 24%
- residual activity ([29]; compound 0.1 µM): 102%
- residual activity ([29]; compound 1.0 µM): 74%
- residual activity ([30]; compound 0.1 µM): 41%
- residual activity ([30]; compound 1.0 µM): 26%
- residual activity ([31]; compound 0.1 µM): 119%
- residual activity ([31]; compound 1.0 µM): 88%
- residual activity ([32]; compound 0.1 µM): 103%
- residual activity ([32]; compound 1.0 µM): 65%
- residual activity ([33]; compound 0.1 µM): 109%
- residual activity ([33]; compound 1.0 µM): 75%
- residual activity ([34]; compound 0.1 µM): 55%
- residual activity ([34]; compound 1.0 µM): 13%
- residual activity ([35]; compound 0.1 µM): 12%
- residual activity ([35]; compound 1.0 µM): 3%
